Molecules are shown by their SMILES.

Experimental findings from the OPERA property sets (Mansouri et al. 2018) are described below.

The term logP denotes a log measure of how a compound divides between an organic and an aqueous phase. The low end stands for a more hydrophilic compound, the high end for a more lipophilic compound. The compound `C=CCNc1nc(Cl)nc(NCC=C)n1` came in with a logP of 2.75. In the case of `O=C(Cc1ccccc1)Nc1cccc(Cl)c1` it was 3.61; in that of `CN(C)C(=O)Nc1cccc(Cc2ccccc2)c1`, 2.83. In the case of `CCCCCC(C)Nc1nc(Cl)nc(NCC)n1` (centres undefined) it was 4.74; in that of `CCNc1nc(Cl)nc(NCC2CC2)n1`, 2.85; in that of `CNC(=O)Nc1cccc(OC)c1`, 1.26. In the case of `CC1(NC(=O)Nc2ccccc2)CCCCC1` it was 3.6. On to `CCCc1ccc(NC(=O)N(C)C)cc1`, for which the logP is 2.55. The figure for `CCNc1nc(Cl)nc(NC2CCCCC2)n1` is 3.63; for `CC(C)CNC(=O)Nc1ccc(Cl)c(Cl)c1` it is 4.48.

`C=CC(C)C(=O)Nc1ccc(Cl)cc1Cl` (centres undefined): the logP turned out to be 3.49.

Consider `CCCC(C)C(=O)Nc1ccc(C)c(Cl)c1` (centres undefined), for which the logP amounted to 4.31. With `CCCC(C)(C)C(=O)Nc1ccc(Cl)cc1`, the logP amounted to 3.83. The figure for `CCNc1nc(Cl)nc(NC2CCC2)n1` is 2.77.
